Source: patent US20220119440A1, “PEPTIDE AND METHOD FOR MANUFACTURING SAME” (AGC Inc., priority 2019, published 2022)
Read-outs that look alike come from different tables or passages of the source. Peptide text beside a SMILES is read from it. * marks the point of attachment. NHBn = c1ccc(CN*)cc1

Legend:
[1] = PAMPA (Parallel Artificial Membrane Permeability Assay); format: in vitro ADME
Procedure: (§1) Further, with respect to the peptides synthesized in Examples 14, 15 and 17 and Comparative Examples 5,6 and 8, MDCK-II assay was conducted. For the MDCK-II assay, propranolol (CAS No: 318-98-9) was used as a positive control (“PC”) and Norfloxacin (CAS No: 70458-96-7) as a negative control (“NC”).
Permeability of the peptides was evaluated by PAMPA. In the PAMPA, 300 μL of a 5% DMSO-containing PBS was added to the respective wells of an accepter plate (MultiScreen 96-well transport receiver plate, manufactured by Merck), and 150 μL of a peptide solution (20 μM) dissolved in 5% DMSO/PBS was added to the respective wells of a donor plate (MultiScreen-IP filter plate, 0.45 μm, manufactured by Merck). A dodecane solution of 1% lecithin (from soybean) was subjected to ultrasonic treatment for 30 minutes before use, and 5 μL of the solution was applied to the membrane support (PVDF) of the respective wells of the donor plate. The donor plate was placed on the acceptor plate, and the plates were left to stand in an incubator at 25° C. for 18 hours. The peptide concentration was determined by LC/MS. The experiment was conducted repeatedly three times. The permeability (Pe) was calculated in accordance with the following formulae.
A: filter area (0.3 cm^2) VD: volume of donor well (0.15 cm^3) VA: volume of acceptor well (0.3 cm^3) t: incubation time (s) (18 hours=64800 s) CD (t): compound concentration in donor well at time t CA (t): compound concentration in acceptor well at time t

[2] = MDCK-II assay (cell monolayer assay); format: in vitro ADME; details: dog
Procedure: as §1
MDCK-II cells were seeded on Cell Culture Inserts (Falcon) at 5.04×10^4 cells/mL, and 5 days after seeding, cell monolayer assay (MDCK-II assay) was conducted. The peptide stock solution was prepared at 2 mM in DMSO solution, and diluted with HBSS containing 20 mM of HEPES (pH 7.5) to prepare a 2 μM peptide solution using as a solvent 0.1% DMSO/HBSS (+), as a donor solution. The acceptor solution was a 0.1% DMSO solution using as a solvent HBSS (+) containing 20 mM of HEPES (pH 7.5). […] The peptide concentration was analyzed by LC/MS. The experiment was conducted repeatedly three times. The permeability (Papp) was calculated in accordance with the following formula.
A: filter area (0.3 cm^2) VB: basolateral well volume (0.75 cm^3) t: incubation time (s) (2 hours=7200 s) C0: initial concentration in apical chamber (2 μM) CB (t): basolateral compound concentration at time t

[3] = peptide 20 μM in 5% DMSO/PBS, 1% lecithin in dodecane on PVDF, 25° C. for 18 hours, repeated three times, read-out: Pe
[4] = MDCK-II monolayer, 2 μM peptide, apical side to basolateral side, 37° C., 5% CO2, 2 hours, repeated three times, read-out: Papp

CC(=O)NC(C(=O)N[C@@H](Cc1ccccc1)C(=O)NCC(C)C)C(F)(F)F (stereo partly drawn) [Example 15, Ac-D,L-Ala (F3)-L-Phe-iBu]
Papp at 18 h, 20 μM [1, 3]: 0.19 ×10⁻⁶ cm/s | Papp A→B at 2 h, 2 μM [2, 4]: 9.86 ×10⁻⁶ cm/s

CC(=O)N[C@@H](C)C(=O)N[C@@H](C)C(=O)NCc1ccccc1 [Comparative Example 5, Ac-L-Ala-L-Ala-NHBn, reference compound] (Ac-Ala-Ala-NHBn)
Papp A→B at 2 h, 2 μM ([2]; MDCK): 1.23 ×10⁻⁶ cm/s

CC(=O)N[C@H](C(=O)N[C@@H](Cc1ccccc1)C(=O)NCC(C)C)C(C)C [Comparative Example 8, Ac-L-Val-L-Phe-iBu, reference compound]
Papp at 18 h, 20 μM [1]: 0.07 ×10⁻⁶ cm/s | Papp A→B at 2 h, 2 μM ([2]; MDCK): 7.12 ×10⁻⁶ cm/s

CC(=O)NC(C(=O)N[C@@H](Cc1ccccc1)C(=O)NCC(C)C)C(C(F)(F)F)C(F)(F)F (stereo partly drawn) [Example 17, Ac-D,L-Val (F6)-L-Phe-iBu]
Papp at 18 h, 20 μM [1, 3]: 1.57 ×10⁻⁶ cm/s | Papp A→B at 2 h, 2 μM [2, 4]: 8.38 ×10⁻⁶ cm/s

CC(=O)NC(C(=O)N[C@@H](C)C(=O)N(C)C)C(C(F)(F)F)C(F)(F)F (stereo partly drawn) [Example 16, Ac-D,L-Val (F6)-L-Ala-NMe2]
Papp at 18 h, 20 μM [1, 3]: 0.04 ×10⁻⁶ cm/s

CC(=O)N[C@H](C(=O)N[C@@H](C)C(=O)N(C)C)C(C)C [Comparative Example 7, Ac-L-Val-L-Ala-NMe2, reference compound] (Ac-Val-Ala-NMe2)
Papp at 18 h, 20 μM [1]: ≤ 0.003 ×10⁻⁶ cm/s

CC(=O)NC(C(=O)N[C@@H](C)C(=O)NCc1ccccc1)C(F)(F)F (stereo partly drawn) [Example 14, Ac-D,L-Ala (F3)-L-Ala-NHBn]
Papp A→B at 2 h, 2 μM [2, 4]: 3.26 ×10⁻⁶ cm/s
